2 compounds from patent US12458647B2, “Macrocyclic derivative and use thereof” (Guangzhou Joyo Pharmatech Co., Ltd., priority 2022, dated 2025) can be followed below.

In data set [1] the test system is A549 cells. In words: In vitro cell proliferation experiment (5 days), A549. The data set is classed as cell-based. The conditions noted are these: A549, 5 days; read-out: Inhibitory Activity IC50. How it is done:
(§1) RPMI 1640 medium, DMEM, Ham's F12 medium, F12K medium, IMDM and penicillin/streptomycin antibiotics were purchased from Gibco, fetal bovine serum was purchased from Hyclone, Envision multilabel plate reader (PerkinElmer). […]
(§2) The test compound was diluted by 5-fold to 8 concentrations with a pipette, i.e., from 2 mM to 25.6 nM, and replicate wells were set up for the experiment. […] Another cell plate was prepared, and the signal value was read as the maximum value (the maximum value in the following equation) on the day of dosing for data analysis.
(§3) 50 μL of cell viability chemiluminescent detection reagent was added to the cell plate and incubated at room temperature for 30 minutes to stabilize the luminescence signal. A multilabel plate reader was used for reading. […]

The subject of data set [2] is NCI—H441 cells. As to the kind of experiment: In vitro cell proliferation experiment (5 days), H441. It is filed as cell-based. The conditions noted are these: H441, 5 days; read-out: Inhibitory Activity IC50. The method, then:
as §1, §2, §3

Data set [3] concerns PK-59 cell line. As to the kind of experiment: In vitro cell proliferation experiment (5 days), PK-59. Particulars: PK-59, 5 days; read-out: Inhibitory Activity IC50. The data set is classed as cell-based. The method, then: as §1, §2, §3
The subject of data set [4] is GP2D cell line. As to the kind of experiment: In vitro cell proliferation experiment (5 days, 3D CellTiter-Glo), GP2D. It is filed as cell-based. The conditions noted are these: read-out: Inhibitory Activity IC50. How it is done:
as §1, §2, §3

The test system of data set [5] is Capan-1 cells. As to the kind of experiment: In vitro cell proliferation experiment (5 days), Capan-1. It is filed as cell-based. The conditions noted are these: Capan-1, 5 days; read-out: Inhibitory Activity IC50. The method, then: as §1, §2, §3
Data set [6] can be described thus: Pharmacokinetics test in mice. It is filed as in vivo, male CD-1 (ICR) mice. The conditions noted are these: male CD-1 mice. How it is done:
The pharmacokinetic behavior of the compounds of the present disclosure was evaluated in male CD-1 (ICR) mice.
The compounds to be tested were dissolved in the vehicle (5% DMSO/10% solutol/85% water). Four male CD-1 mice were divided into 2 groups of 2 mice each. Group 1 mice were administered a single intravenous bolus injection of the compound at a dose of 1 mg/kg. Group 2 mice were administered a single dose of the compound by gavage at a dose of 10 mg/kg. Whole blood samples were collected at 0.083 (intravenous bolus group only), 0.25, 0.5, 1, 2, 4, 8 and 24 hours after dosing. The LC-MS/MS method was used to determine the concentration of the test compound in whole blood samples.

Setting [7] is: intravenous bolus 1 mg/kg, whole blood.

Take `CCn1c(-c2cc(N3CCN(C)CC3)cnc2C(C)OC)c2c3cc(ccc31)-c1csc(n1)CC(NC(=O)C1C(C)C1C)C(=O)N1NC(C(=O)OCC(C)(C)C2)C2CC1C2` (single isomer, unassigned) [Compound 6A]: the IC50 in data set [1] amounted to 4.1 nM; in data set [2], 1.4 nM; in data set [3], 2.3 nM; in data set [4], 0.9 nM; in data set [5], 2.5 nM.
For `CCn1c(-c2cc(N3CCN(C)CC3)cnc2C(C)OC)c2c3cc(ccc31)-c1csc(n1)CC(NC(=O)C1CC1C)C(=O)N1NC(C(=O)OCC(C)(C)C2)C2CC1C2` (single isomer, unassigned) [Compound 7A], the “bioavailability (F)” value in data set [6] (gavage 10 mg/kg vs i.v. 1 mg/kg) is 54.3%. In data set [6] (gavage 10 mg/kg, whole blood), the AUC0-last is 17,119 h·nmol/mL and the “time to maximum concentration (τmax)” value amounted to 3.0 h. In data set [6] (setting [7]), the “apparent volume of distribution at steady state (Vd)” value is given as 2.18 L/kg, the “area under the whole blood concentration-time curve (AUC0-last)” value came to 3.160 µM·h, the “elimination half-life (T1/2)” value came to 4.29 h and the “whole blood clearance (C1)” value is recorded as 6.29 mL/min/kg.
